From patent publication US7759101B2, “Ginsenoside glycosidases hydrolyzing ginsenoside sugar moieties and uses thereof” (priority 2000, dated 2010)

System: Enzymes from Plant Seeds—Almond
Assay: Hydrolysis of Rb1 with enzymes from almond
Format: biochemical
Conditions: 1% Rb1 solution, pH 5, 20% ethanol, 50° C., 14 hours
Description: 100 g of almond was ground and added to 300 ml of 0.01 M acetate buffer pH 5 for extraction under room temperature for two hours. The mixture was centrifuged. (NH4)2SO4 was added to the supernatant to 60% saturation to precipitate the enzymes. The mixture was stored at 4° C. overnight. Precipitates were collected by centrifugation and dialyzed against 0.01 M acetate buffer pH 5. Impurities were removed and 30 ml of enzyme solution was obtained. 10 ml of the enzyme solution was allowed to react with 10 ml of 1% Rb1 solution (in 0.01 M acetate buffer pH 5 containing 20% ethanol) at 50° C. for 14 hours.

SMILES: CC(C)=CCC[C@](C)(O[C@@H]1O[C@H](CO[C@@H]2O[C@H](CO)[C@@H](O)[C@H](O)[C@H]2O)[C@@H](O)[C@H](O)[C@H]1O)[C@H]1CC[C@]2(C)[C@@H]1[C@H](O)C[C@@H]1[C@@]3(C)CC[C@H](O[C@@H]4O[C@H](CO)[C@@H](O)[C@H](O)[C@H]4O[C@@H]4O[C@H](CO)[C@@H](O)[C@H](O)[C@H]4O)C(C)(C)[C@@H]3CC[C@]12C [Rb1, ginsenoside Rb1]
- Rb1 converted to ginsenosides with lower sugar contents: 40%
